Literature values as cited in patent publication US11883378B2, “Hydrogel formulations and methods and devices for focal administration of the same” (Pykus Therapeutics, Inc., priority 2021, dated 2024).
In brackets after ≈: the same amount, converted by molar mass.

Experiments:
[1] = system: VEGF
Sequence of VEGF (P15692 207-311 limits assumed): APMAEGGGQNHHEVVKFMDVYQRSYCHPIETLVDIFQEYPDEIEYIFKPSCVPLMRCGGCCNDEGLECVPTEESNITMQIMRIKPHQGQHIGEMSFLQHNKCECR

For C=CC[C@@H]1/C=C(\C)C[C@H](C)C[C@H](OC)[C@H]2O[C@@](O)(C(=O)C(=O)N3CCCC[C@H]3C(=O)O[C@H](/C(C)=C/[C@@H]3CC[C@@H](O)[C@H](OC)C3)[C@H](C)[C@@H](O)CC1=O)[C@H](C)C[C@@H]2OC [Tacrolimus], the solubility in water is given as ~1 µg/mL (≈ 1.24 µM).

In the case of “Bevacizumab: anti-VEGF monoclonal antibody (large protein) with a molecular weight of ~150 kD”, the “tolerability of intravitreal injection” value ([1]; dose of 1.25 mg) is listed as “well tolerated” and the “effective dose in the vitreous” value ([1]; maintained by monthly repetitive intravitreal injections) is listed as ~1 µg/mL.
